Each structure is given as a SMILES string. pEC50: −log10 of the molar value.

Sequence of human activated kallikrein enzyme (plasma kallikrein) (P03952 391-638): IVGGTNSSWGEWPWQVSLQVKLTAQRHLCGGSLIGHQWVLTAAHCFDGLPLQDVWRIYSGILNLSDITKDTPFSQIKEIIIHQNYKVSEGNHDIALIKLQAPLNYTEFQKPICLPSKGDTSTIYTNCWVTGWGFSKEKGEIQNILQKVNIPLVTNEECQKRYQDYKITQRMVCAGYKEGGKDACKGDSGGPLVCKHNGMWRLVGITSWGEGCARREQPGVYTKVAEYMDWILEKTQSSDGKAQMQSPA
Sequence of human activated kallikrein enzyme (plasma kallikrein) (P03952 20-390 partner): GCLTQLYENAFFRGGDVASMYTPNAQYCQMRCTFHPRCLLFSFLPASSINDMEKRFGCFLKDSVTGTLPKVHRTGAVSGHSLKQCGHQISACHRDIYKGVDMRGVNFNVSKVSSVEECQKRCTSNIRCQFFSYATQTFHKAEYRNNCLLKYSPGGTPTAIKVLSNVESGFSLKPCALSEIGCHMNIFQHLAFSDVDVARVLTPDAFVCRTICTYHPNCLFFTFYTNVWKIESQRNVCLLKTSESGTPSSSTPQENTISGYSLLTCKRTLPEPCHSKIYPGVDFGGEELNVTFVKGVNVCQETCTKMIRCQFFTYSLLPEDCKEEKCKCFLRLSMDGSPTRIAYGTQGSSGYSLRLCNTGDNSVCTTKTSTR

One experiment addresses human activated kallikrein enzyme (plasma kallikrein) (Homo sapiens (Human), UniProt P03952). The experiment can be described thus: Inhibition of human activated plasma kallikrein, fluorogenic peptide substrate assay, 500 pM enzyme format. The format is biochemical. The conditions noted are these: 500 pM activated kallikrein enzyme, 300 uM Pro-Phe-Arg-7-amido-4-methylcoumarin substrate, 30 min preincubation, 10 min at RT; read-out: Primary Dose Response Assay: Average EC50. In short, it runs like this: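 Buffer 20 mM Tris pH 7.5, EDTA, NaCl, PEG-400, Triton X-100; 300 uM Pro-Phe-Arg-AMC; enzyme–inhibitor preincubation 30 min RT. Format one: 500 pM kallikrein, 10 min RT reaction; format two: 5 pM kallikrein, 18 h RT reaction. Fluorescence read at 460 nm (380 nm excitation).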
On to `O=C(NCc1ncn2ccc(Cl)c(F)c12)c1cn(Cc2cc3ccc(C4CC4)cc3[nH]2)nn1` [Example I-235, N-((7-chloro-8-fluoroimidazo[1,5-a]pyridin-1-yl)methyl)-1-((6-cyclopropyl-1H-indol-2-yl)methyl)-1H-1,2,3-triazole-4-carboxamide], for which the pEC50 (in general, the negative decadic logarithm of the EC50, by convention in mol/L) was 5.70 to 7.00. Take `O=C(O)c1ccc2nc(Cn3cc(C(=O)NCc4ncn5ccc(Cl)cc45)cn3)cn2c1` [Example I-96, 2-((4-(((7-chloroimidazo[1,5-a]pyridin-1-yl)methyl)carbamoyl)-1H-pyrazol-1-yl)methyl)imidazo[1,2-a]pyridine-6-carboxylic acid]: the pEC50 was less than 5.70.

As to `CCOC(=O)c1nncn1-c1cc(C2CC2)cn2cc(Cn3cc(C(=O)NCc4ncn5ccc(Cl)c(F)c45)nn3)nc12` [Example I-248, ethyl 4-(2-((4-(((7-chloro-8-fluoroimidazo[1,5-a]pyridin-1-yl)methyl)carbamoyl)-1H-1,2,3-triazol-1-yl)methyl)-6-cyclopropylimidazo[1,2-a]pyridin-8-yl)-4H-1,2,4-triazole-3-carboxylate], the pEC50 is more than 9.00.

Consider `O=C(NCc1ncn2ccc(Cl)c(F)c12)c1cn(Cc2cn3nc(C4CC4)ccc3n2)nn1` [Example I-150, N-((7-chloro-8-fluoroimidazo[1,5-a]pyridin-1-yl)methyl)-1-((6-cyclopropylimidazo[1,2-b]pyridazin-2-yl)methyl)-1H-1,2,3-triazole-4-carboxamide], for which the pEC50 is more than 9.00. Turning to `O=C(NCc1ncn2ccc(Cl)c(F)c12)c1cn(Cc2cn3cc(C4CC4)cc(C(F)(F)F)c3n2)nn1` [Example I-185, N-((7-chloro-8-fluoroimidazo[1,5-a]pyridin-1-yl)methyl)-1-((6-cyclopropyl-8-(trifluoromethyl)imidazo[1,2-a]pyridin-2-yl)methyl)-1H-1,2,3-triazole-4-carboxamide], the negative-log EC50 (pEC50) is more than 9.00. Same read-out and setting: then `O=C(NCc1ncn2ccc(Cl)c(F)c12)c1cn(Cc2nc3ccc(C4CC4)cc3s2)nn1` [Example I-252, N-((7-chloro-8-fluoroimidazo[1,5-a]pyridin-1-yl)methyl)-1-((6-cyclopropylbenzo[d]thiazol-2-yl)methyl)-1H-1,2,3-triazole-4-carboxamide], with 7.00 to 8.00; and `O=C(NCc1ncn2ccc(Cl)c(F)c12)c1cn(Cc2cn3cc(C4CC4)cc(Cc4nnco4)c3n2)nn1` [Example I-210b, 1-((8-((1,3,4-oxadiazol-2-yl)methyl)-6-cyclopropylimidazo[1,2-a]pyridin-2-yl)methyl)-N-((7-chloro-8-fluoroimidazo[1,5-a]pyridin-1-yl)methyl)-1H-1,2,3-triazole-4-carboxamide], with more than 9.00; and `O=C(NCc1ncn2ccc(Cl)c(F)c12)c1ccn(Cc2cn3cc(C4CC4)ccc3n2)c1` [Example I-276, N-((7-chloro-8-fluoroimidazo[1,5-a]pyridin-1-yl)methyl)-1-((6-cyclopropylimidazo[1,2-a]pyridin-2-yl)methyl)-1H-pyrrole-3-carboxamide], with more than 9.00. `O=C(NCc1ncn2ccc(Cl)cc12)c1cnn(Cc2cn3cc(C4CC4)cc(C(O)C4COC4)c3n2)c1` (stereo not drawn) [Example I-141, N-((7-chloroimidazo[1,5-a]pyridin-1-yl)methyl)-1-((6-cyclopropyl-8-(hydroxy(oxetan-3-yl)methyl)imidazo[1,2-a]pyridin-2-yl)methyl)-1H-pyrazole-4-carboxamide]: the pEC50 is more than 9.00. On to `O=C(NCc1ncn2ccc(Cl)c(F)c12)c1nnc(C(F)(F)c2cn3cc(C4CC4)ccc3n2)o1` [Example I-243, N-((7-chloro-8-fluoroimidazo[1,5-a]pyridin-1-yl)methyl)-5-((6-cyclopropylimidazo[1,2-a]pyridin-2-yl)difluoromethyl)-1,3,4-oxadiazole-2-carboxamide], for which the negative logarithm of the EC50 (pEC50) was 8.00 to 9.00. Turning to `Cc1ccc2nc(Cn3cc(C(=O)NCc4ncn5ccc(Cl)cc45)cn3)cn2c1C` [Example I-130], the pEC50 is 7.00 to 8.00. Regarding `O=C(NCc1ncn2ccc(Cl)c(F)c12)c1cn(Cc2cc3cc(C4CC4)ccn3n2)nn1` [Example I-175, N-((7-chloro-8-fluoroimidazo[1,5-a]pyridin-1-yl)methyl)-1-((5-cyclopropylpyrazolo[1,5-a]pyridin-2-yl)methyl)-1H-1,2,3-triazole-4-carboxamide], the negative-log EC50 (pEC50) was more than 9.00.

Consider `O=C(NCc1ncn2ccc(Cl)c(F)c12)c1cn(Cc2cn3cc(C4CC4)cc(Cn4cccn4)c3n2)nn1` [Example I-201, 1-((8-((1H-pyrazol-1-yl)methyl)-6-cyclopropylimidazo[1,2-a]pyridin-2-yl)methyl)-N-((7-chloro-8-fluoroimidazo[1,5-a]pyridin-1-yl)methyl)-1H-1,2,3-triazole-4-carboxamide], for which the pEC50 was more than 9.00. Regarding `O=C(NCc1ncn2ccc(Cl)c(F)c12)c1cn(Cc2cn3cc(C4CC4)cnc3n2)nn1` [Example I-165, N-((7-chloro-8-fluoroimidazo[1,5-a]pyridin-1-yl)methyl)-1-((6-cyclopropylimidazo[1,2-a]pyrimidin-2-yl)methyl)-1H-1,2,3-triazole-4-carboxamide], the negative logarithm of the EC50 (pEC50) was more than 9.00. Still for that read-out and setting: the same measure for `O=C(NCc1ncn2ccc(Cl)cc12)c1cnn(Cc2cc3ncc(C4CC4)cc3[nH]2)c1` [Example I-84, N-((7-chloroimidazo[1,5-a]pyridin-1-yl)methyl)-1-((6-cyclopropyl-1H-pyrrolo[3,2-b]pyridin-2-yl)methyl)-1H-pyrazole-4-carboxamide]: 7.00 to 8.00; for `C/C=C\c1ccc2nc(Cn3cc(C(=O)NCc4ncn5ccc(Cl)cc45)cn3)cn2c1` [Example I-47, (Z)—N-((7-chloroimidazo[1,5-a]pyridin-1-yl)methyl)-1-((6-(prop-1-en-1-yl)imidazo[1,2-a]pyridin-2-yl)methyl)-1H-pyrazole-4-carboxamide]: 8.00 to 9.00. In the case of `COCc1nn(Cc2cn3cc(C4CC4)ccc3n2)cc1C(=O)NCc1ncn2ccc(Cl)cc12` [Example I-31, N-((7-chloroimidazo[1,5-a]pyridin-1-yl)methyl)-1-((6-cyclopropylimidazo[1,2-a]pyridin-2-yl)methyl)-3-(methoxymethyl)-1H-pyrazole-4-carboxamide], the pEC50 was more than 9.00. On the same count and under the same terms, then `N#Cc1cc(C2CC2)cn2cc(Cn3cc(C(=O)NCc4ncn5ccc(Cl)cc45)nn3)nc12` [Example I-112, N-((7-chloroimidazo[1,5-a]pyridin-1-yl)methyl)-1-((8-cyano-6-cyclopropylimidazo[1,2-a]pyridin-2-yl)methyl)-1H-1,2,3-triazole-4-carboxamide], with more than 9.00; and `O=C(NCc1ncn2ccc(Cl)cc12)c1cnn(Cc2cn3cc(C(F)(F)F)ccc3n2)c1` [Example I-18, N-((7-chloroimidazo[1,5-a]pyridin-1-yl)methyl)-1-((6-(trifluoromethyl)imidazo[1,2-a]pyridin-2-yl)methyl)-1H-pyrazole-4-carboxamide], with 8.00 to 9.00.

Consider `CCc1c(Cl)ccc2nc(Cn3cc(C(=O)NCc4ncn5ccc(Cl)cc45)cn3)cn12` [Example I-34, 1-((6-chloro-5-ethylimidazo[1,2-a]pyridin-2-yl)methyl)-N-((7-chloroimidazo[1,5-a]pyridin-1-yl)methyl)-1H-pyrazole-4-carboxamide], for which the negative-log EC50 (pEC50) was 7.00 to 8.00. For the molecule `CC(NC(=O)c1cn(Cc2cn3cc(C4CC4)cc(C(O)C4COC4)c3n2)nn1)c1ncn2ccc(Cl)c(F)c12` (stereo not drawn) [Example I-280, N-(1-(7-chloro-8-fluoroimidazo[1,5-a]pyridin-1-yl)ethyl)-1-((6-cyclopropyl-8-(hydroxy(oxetan-3-yl)methyl)imidazo[1,2-a]pyridin-2-yl)methyl)-1H-1,2,3-triazole-4-carboxamide], the pEC50 was 7.00 to 8.00. `O=C(NCc1ncn2ccc(Cl)c(F)c12)c1cnn(Cc2cn3nc(C4CC4)ccc3n2)c1` [Example I-146, N-((7-chloro-8-fluoroimidazo[1,5-a]pyridin-1-yl)methyl)-1-((6-cyclopropylimidazo[1,2-b]pyridazin-2-yl)methyl)-1H-pyrazole-4-carboxamide]: the pEC50 is more than 9.00. Take `O=C(O)CCc1nn(Cc2cn3cc(C4CC4)ccc3n2)cc1C(=O)NCc1ncn2ccc(Cl)cc12` [Example I-73, 3-(4-(((7-chloroimidazo[1,5-a]pyridin-1-yl)methyl)carbamoyl)-1-((6-cyclopropylimidazo[1,2-a]pyridin-2-yl)methyl)-1H-pyrazol-3-yl)propanoic acid]: the negative-log EC50 (pEC50) was more than 9.00. Take `N#Cc1cc(C2CC2)cn2cc(Cn3cc(C(=O)NCc4ncn5ccc(Cl)cc45)cn3)nc12` [Example I-92, N-((7-chloroimidazo[1,5-a]pyridin-1-yl)methyl)-1-((8-cyano-6-cyclopropylimidazo[1,2-a]pyridin-2-yl)methyl)-1H-pyrazole-4-carboxamide]: the pEC50 was more than 9.00. As for `O=C(NCc1ncn2ccc(Br)c(F)c12)c1cn(Cc2cn3c(F)c(C4CC4)ccc3n2)nn1` [Example I-145, N-((7-bromo-8-fluoroimidazo[1,5-a]pyridin-1-yl)methyl)-1-((6-cyclopropyl-5-fluoroimidazo[1,2-a]pyridin-2-yl)methyl)-1H-1,2,3-triazole-4-carboxamide], the pEC50 was more than 9.00. The same measure, in the same setting: then `CCOC(=O)C1(c2cccn3cc(Cn4cc(C(=O)NCc5ncn6ccc(Cl)cc56)cn4)nc23)CC1` [Example I-115, ethyl 1-(2-((4-(((7-chloroimidazo[1,5-a]pyridin-1-yl)methyl)carbamoyl)-1H-pyrazol-1-yl)methyl)imidazo[1,2-a]pyridin-8-yl)cyclopropane-1-carboxylate], with more than 9.00.

The experiment is the same for the next values; noted with them: comparative compounds (Table II); assay format with 500 pM (500 μM in the source) activated kallikrein; read-out: Primary Dose Response Assay: Average EC50.
Regarding `COCc1nn(Cc2ccc(Cn3ccccc3=O)cc2)cc1C(=O)NCc1c(F)ccc(OC)c1F` [reference compound], the negative logarithm of the EC50 (pEC50) was 7.00 to 8.00.

These data come from patent publication US10730874B2 (Shire Human Genetic Therapies, Inc., priority 2018, dated 2020).
